{
  "source": "ChEMBL document CHEMBL1201862",
  "about": "“PubChem BioAssay data set” (2004)",
  "key": {"Cytochrome P450 3A4 [1]": {"target": "T1, Cytochrome P450 3A4 (Homo sapiens, UniProt P08684)", "T1 sequence (P08684 whole entry)": "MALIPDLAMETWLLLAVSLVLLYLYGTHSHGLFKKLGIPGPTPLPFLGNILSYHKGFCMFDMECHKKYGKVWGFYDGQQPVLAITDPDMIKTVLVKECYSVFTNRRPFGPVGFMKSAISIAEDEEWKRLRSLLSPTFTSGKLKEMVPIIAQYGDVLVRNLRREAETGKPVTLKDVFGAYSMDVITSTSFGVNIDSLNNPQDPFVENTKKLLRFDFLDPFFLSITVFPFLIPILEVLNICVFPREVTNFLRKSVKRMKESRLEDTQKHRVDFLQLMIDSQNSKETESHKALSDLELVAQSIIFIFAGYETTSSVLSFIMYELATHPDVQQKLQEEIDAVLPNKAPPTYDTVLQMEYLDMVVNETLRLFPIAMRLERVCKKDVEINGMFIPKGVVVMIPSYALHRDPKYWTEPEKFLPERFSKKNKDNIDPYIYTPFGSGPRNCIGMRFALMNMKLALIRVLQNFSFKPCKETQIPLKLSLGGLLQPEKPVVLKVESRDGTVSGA"}, "Cytochrome P450 3A4 [2]": {"target": "T1, Cytochrome P450 3A4", "settings": "Potency"}, "[3]": {"target": "T2, Histone-lysine N-methyltransferase NSD2 (Homo sapiens, UniProt O96028)", "T2 sequence (O96028 whole entry)": "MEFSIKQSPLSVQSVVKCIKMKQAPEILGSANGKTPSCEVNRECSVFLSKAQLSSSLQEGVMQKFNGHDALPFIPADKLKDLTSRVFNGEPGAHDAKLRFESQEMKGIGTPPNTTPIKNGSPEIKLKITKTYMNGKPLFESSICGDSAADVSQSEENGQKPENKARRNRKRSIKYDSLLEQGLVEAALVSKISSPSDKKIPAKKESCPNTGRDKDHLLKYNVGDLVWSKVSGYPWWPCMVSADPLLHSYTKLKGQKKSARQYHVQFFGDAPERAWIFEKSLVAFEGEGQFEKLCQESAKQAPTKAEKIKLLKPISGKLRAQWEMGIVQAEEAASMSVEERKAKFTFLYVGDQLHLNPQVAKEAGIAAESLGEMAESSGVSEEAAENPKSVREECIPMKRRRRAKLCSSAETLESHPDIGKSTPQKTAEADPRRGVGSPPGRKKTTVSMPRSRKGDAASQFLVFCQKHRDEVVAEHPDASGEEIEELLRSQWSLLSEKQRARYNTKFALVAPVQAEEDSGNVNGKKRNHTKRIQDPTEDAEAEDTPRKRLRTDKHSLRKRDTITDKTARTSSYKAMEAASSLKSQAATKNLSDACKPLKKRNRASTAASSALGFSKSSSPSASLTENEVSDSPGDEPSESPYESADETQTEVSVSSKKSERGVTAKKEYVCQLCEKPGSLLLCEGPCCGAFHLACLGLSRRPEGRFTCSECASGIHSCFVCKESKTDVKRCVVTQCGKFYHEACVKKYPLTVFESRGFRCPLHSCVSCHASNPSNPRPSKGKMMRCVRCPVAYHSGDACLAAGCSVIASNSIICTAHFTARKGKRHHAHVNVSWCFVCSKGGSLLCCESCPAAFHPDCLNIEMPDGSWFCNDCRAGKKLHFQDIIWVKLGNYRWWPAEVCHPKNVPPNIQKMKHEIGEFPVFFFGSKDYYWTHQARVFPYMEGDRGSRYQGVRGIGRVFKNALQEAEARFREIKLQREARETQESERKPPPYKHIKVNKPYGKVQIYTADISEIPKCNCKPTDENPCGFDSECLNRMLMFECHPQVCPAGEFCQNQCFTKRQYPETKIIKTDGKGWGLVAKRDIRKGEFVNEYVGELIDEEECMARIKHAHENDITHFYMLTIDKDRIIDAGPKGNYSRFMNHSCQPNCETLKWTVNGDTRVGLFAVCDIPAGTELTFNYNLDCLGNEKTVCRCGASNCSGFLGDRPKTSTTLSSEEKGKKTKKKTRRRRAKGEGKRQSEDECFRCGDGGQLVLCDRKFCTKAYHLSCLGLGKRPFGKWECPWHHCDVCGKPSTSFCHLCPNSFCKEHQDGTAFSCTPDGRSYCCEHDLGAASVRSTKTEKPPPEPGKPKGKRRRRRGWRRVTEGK", "assay_type": "biochemical"}, "Cytochrome P450 2C19": {"target": "Cytochrome P450 2C19 (Homo sapiens, UniProt P33261)", "sequence (P33261 whole entry)": "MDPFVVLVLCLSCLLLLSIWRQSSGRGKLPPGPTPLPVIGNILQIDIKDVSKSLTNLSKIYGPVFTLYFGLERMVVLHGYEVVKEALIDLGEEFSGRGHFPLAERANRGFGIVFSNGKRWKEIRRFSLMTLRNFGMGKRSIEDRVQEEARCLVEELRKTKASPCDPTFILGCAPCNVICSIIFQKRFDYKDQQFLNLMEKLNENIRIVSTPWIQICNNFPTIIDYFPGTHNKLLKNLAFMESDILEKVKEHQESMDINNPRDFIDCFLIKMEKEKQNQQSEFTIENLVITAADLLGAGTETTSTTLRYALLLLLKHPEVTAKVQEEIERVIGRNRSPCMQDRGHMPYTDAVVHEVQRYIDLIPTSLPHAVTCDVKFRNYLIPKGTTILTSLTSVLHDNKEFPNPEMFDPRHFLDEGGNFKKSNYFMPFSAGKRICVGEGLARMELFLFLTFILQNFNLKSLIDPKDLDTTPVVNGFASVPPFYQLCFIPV", "assay": "Cytochrome panel assay with activity outcomes. Panel member name: p450-cyp2c19 Compounds with AC50 equal or less than 10 uM are considered active", "assay_type": "functional"}, "Cytochrome P450 2D6": {"target": "Cytochrome P450 2D6 (Homo sapiens, UniProt P10635)", "sequence (P10635 whole entry)": "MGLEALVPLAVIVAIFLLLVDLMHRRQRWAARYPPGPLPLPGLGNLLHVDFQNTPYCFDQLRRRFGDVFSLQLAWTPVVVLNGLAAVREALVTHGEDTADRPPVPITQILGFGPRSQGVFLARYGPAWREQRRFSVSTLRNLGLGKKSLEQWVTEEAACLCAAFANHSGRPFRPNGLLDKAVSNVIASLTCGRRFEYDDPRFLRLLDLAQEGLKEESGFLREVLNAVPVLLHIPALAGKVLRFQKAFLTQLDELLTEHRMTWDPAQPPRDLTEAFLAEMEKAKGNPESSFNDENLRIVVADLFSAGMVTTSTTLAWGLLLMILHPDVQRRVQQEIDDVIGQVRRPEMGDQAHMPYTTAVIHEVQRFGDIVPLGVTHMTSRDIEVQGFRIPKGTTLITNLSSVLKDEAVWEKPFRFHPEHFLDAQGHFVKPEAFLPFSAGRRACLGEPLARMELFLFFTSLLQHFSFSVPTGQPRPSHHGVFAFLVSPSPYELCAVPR"}, "Cytochrome P450 2C9": {"target": "Cytochrome P450 2C9 (Homo sapiens, UniProt P11712)"}, "Cytochrome P450 3A4 [4]": {"target": "T1, Cytochrome P450 3A4", "remark": "listed apart in the source"}, "[5]": {"target": "T3, Short transient receptor potential channel 4 (Mus musculus, UniProt Q9QUQ5)", "T3 sequence (Q9QUQ5 whole entry)": "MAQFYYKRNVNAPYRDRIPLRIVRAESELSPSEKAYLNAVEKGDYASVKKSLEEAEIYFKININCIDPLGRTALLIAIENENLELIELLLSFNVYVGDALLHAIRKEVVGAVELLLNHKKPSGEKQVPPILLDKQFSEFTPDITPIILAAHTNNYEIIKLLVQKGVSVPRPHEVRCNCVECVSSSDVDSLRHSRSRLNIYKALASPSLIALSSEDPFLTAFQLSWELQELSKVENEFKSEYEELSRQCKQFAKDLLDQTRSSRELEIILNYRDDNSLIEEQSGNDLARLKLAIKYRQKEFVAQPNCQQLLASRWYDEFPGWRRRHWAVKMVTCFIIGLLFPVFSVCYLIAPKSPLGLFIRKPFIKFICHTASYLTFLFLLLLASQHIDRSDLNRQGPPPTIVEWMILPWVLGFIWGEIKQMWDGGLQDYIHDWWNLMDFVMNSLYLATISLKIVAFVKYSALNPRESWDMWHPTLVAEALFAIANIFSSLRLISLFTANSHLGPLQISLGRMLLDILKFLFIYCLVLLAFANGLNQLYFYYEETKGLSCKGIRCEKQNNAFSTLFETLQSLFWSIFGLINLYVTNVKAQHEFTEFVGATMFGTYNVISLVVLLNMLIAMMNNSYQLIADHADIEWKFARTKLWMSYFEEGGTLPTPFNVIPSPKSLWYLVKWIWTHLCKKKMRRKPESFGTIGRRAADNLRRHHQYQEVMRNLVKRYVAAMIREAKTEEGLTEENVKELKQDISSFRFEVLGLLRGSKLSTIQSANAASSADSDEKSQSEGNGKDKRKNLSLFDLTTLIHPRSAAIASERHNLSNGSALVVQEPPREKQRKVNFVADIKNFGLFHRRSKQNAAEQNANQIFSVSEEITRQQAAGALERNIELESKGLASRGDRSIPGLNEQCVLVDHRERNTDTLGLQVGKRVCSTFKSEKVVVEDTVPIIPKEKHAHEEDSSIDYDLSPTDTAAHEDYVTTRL", "assay": "mouse TRPC4 channel inhibitors, dose response, cell-based, HEK293 TRPC4/mu-opioid, Fluo-4 calcium (AID 434942)", "assay_type": "functional"}, "[6]": {"target": "T4, Voltage-gated N-type calcium channel alpha-1B subunit/Amyloid beta A4 precursor protein-binding family A member 1 (Homo sapiens, UniProt Q00975+Q02410)", "T4 sequence (Q00975 whole entry)": "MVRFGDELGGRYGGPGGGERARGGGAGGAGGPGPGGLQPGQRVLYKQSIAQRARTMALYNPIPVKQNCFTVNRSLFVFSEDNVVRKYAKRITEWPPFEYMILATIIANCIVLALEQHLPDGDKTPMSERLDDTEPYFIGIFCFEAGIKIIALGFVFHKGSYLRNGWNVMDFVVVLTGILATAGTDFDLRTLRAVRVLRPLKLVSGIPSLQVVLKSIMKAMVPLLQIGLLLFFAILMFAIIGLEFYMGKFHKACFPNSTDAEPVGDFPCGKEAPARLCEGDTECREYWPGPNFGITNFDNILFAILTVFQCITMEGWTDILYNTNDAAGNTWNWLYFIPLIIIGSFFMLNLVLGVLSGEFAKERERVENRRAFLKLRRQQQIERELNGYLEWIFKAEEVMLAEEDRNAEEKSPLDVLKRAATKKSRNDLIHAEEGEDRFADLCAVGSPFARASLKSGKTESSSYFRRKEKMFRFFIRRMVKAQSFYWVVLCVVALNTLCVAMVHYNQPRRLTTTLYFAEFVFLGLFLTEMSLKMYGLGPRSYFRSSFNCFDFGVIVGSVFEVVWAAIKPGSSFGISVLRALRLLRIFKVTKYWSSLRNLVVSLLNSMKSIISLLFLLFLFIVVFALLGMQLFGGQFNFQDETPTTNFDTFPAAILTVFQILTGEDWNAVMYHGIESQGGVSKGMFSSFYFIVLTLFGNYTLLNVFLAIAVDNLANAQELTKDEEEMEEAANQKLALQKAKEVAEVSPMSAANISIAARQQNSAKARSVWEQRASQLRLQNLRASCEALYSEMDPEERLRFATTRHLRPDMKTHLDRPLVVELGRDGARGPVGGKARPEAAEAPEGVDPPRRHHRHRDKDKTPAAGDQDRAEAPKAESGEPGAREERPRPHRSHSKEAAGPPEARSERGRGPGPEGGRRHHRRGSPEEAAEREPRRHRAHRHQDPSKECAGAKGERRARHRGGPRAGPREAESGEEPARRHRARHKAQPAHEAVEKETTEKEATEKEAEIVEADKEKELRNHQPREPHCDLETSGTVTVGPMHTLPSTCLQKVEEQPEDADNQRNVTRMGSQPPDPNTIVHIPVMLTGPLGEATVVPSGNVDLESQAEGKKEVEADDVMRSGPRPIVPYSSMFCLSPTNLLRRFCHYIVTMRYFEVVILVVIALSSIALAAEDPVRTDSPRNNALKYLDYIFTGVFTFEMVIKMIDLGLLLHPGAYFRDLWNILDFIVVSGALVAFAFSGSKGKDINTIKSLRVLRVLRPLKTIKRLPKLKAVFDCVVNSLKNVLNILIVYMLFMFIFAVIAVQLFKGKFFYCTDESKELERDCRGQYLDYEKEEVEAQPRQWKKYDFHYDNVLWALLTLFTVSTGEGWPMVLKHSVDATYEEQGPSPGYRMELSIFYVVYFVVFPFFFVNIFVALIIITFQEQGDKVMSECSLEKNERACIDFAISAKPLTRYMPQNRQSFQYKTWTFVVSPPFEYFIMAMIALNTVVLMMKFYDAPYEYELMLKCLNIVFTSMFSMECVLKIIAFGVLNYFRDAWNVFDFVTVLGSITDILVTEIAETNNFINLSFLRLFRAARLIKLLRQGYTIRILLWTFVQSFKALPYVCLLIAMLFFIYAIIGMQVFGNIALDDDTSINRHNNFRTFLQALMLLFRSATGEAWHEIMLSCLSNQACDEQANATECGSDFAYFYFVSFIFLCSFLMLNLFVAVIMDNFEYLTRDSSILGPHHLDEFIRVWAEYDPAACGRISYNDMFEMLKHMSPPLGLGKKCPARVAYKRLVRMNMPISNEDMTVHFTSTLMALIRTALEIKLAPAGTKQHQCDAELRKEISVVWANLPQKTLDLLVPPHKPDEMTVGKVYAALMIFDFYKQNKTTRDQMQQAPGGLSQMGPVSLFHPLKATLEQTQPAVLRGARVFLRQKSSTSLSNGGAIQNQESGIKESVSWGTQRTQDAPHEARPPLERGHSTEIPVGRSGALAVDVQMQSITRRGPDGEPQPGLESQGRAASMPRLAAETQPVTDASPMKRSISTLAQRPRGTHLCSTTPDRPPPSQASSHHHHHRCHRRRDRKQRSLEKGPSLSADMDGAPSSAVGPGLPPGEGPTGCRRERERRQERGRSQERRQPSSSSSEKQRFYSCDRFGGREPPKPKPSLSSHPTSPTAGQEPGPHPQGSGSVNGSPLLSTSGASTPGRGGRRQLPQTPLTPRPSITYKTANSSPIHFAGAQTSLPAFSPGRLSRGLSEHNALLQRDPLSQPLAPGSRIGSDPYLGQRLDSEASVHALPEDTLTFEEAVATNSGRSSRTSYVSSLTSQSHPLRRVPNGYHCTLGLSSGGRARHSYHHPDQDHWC", "T4 sequence (Q02410 whole entry)": "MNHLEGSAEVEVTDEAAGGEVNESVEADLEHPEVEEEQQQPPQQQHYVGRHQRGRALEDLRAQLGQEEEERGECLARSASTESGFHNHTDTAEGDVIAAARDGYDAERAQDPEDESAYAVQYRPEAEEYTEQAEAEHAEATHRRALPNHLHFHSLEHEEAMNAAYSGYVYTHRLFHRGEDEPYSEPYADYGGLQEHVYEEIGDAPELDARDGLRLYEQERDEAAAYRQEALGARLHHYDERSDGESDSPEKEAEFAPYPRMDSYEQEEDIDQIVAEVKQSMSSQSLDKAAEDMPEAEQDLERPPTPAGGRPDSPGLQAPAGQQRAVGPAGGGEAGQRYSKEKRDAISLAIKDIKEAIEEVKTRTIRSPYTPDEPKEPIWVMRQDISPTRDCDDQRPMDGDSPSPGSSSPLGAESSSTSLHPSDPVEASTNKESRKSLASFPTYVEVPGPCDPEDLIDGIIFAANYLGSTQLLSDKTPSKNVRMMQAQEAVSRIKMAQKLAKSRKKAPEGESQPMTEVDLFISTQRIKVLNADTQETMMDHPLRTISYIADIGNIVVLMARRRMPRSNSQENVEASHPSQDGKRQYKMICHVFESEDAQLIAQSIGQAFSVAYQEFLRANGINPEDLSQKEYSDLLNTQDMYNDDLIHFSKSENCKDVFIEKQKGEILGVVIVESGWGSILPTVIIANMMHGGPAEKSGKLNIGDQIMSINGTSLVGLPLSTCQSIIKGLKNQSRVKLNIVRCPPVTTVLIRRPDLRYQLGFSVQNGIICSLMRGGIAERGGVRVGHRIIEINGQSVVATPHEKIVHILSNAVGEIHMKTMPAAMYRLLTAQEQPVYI", "assay_type": "protein assay"}, "[7]": {"target": "T4, Voltage-gated N-type calcium channel alpha-1B subunit/Amyloid beta A4 precursor protein-binding family A member 1", "assay_type": "protein assay", "remark": "listed apart in the source"}, "Vero [8]": {"tested_on": "Vero", "assay": "cells", "assay_type": "functional, cell-based", "settings": "Chlorocebus sabaeus"}, "Vero [9]": {"tested_on": "Vero", "assay": "cells", "assay_type": "functional, Chlorocebus sabaeus", "settings": "Chlorocebus sabaeus, Vero"}},
  "note": "Calls of active or inactive are those of the source.",
  "data": [
    {"compound": "Cn1c(=O)c(-c2ccc(Cl)cc2)nc2cnc(Oc3ccccc3)nc21", "values": [
      {"measurement": "AC50", "setting": "Cytochrome P450 3A4 [1]", "result": "inconclusive"}
    ]},
    {"compound": "COc1c(CC(=O)c2cc3c(cc2O)OC(C)(C)C(O)C3)ccc2c1C=CC(C)(C)O2", "note": "(stereo unspecified) [DIHYDROMUNDULETONE]", "values": [
      {"measurement": "AC50", "setting": "Cytochrome P450 3A4 [2]", "result": "25.1 µM (inconclusive)"}
    ]},
    {"compound": "Cc1cc(C=O)c(C)n1-c1ccc(N2CCCCC2)c([N+](=O)[O-])c1", "values": [
      {"measurement": "AC50", "setting": "[3]", "result": "> 20 µM (inactive)"}
    ]},
    {"compound": "O=C(O)/C=C/C(=O)Nc1ccc(F)cc1F", "values": [
      {"measurement": "AC50", "setting": "Cytochrome P450 2C19; read-out: AC50", "result": "39.8 µM (inconclusive)"},
      {"measurement": "AC50", "setting": "Cytochrome P450 3A4 [1]", "result": "inconclusive"}
    ]},
    {"compound": "O=C(c1csnn1)N1CCC2(CC1)CN(C(c1ccccc1)c1ccccc1)C2", "values": [
      {"measurement": "AC50", "setting": "Cytochrome P450 2D6", "result": "12.6 µM (inconclusive)"},
      {"measurement": "AC50", "setting": "Cytochrome P450 2C9", "result": "15.8 µM (inconclusive)"},
      {"measurement": "AC50", "setting": "Cytochrome P450 2C19; read-out: AC50", "result": "0.00631 µM (inconclusive)"},
      {"measurement": "AC50", "setting": "Cytochrome P450 3A4 [1]", "result": "inconclusive"}
    ]},
    {"compound": "N#Cc1c(N2CCCCC2)nc(N)c2c(N)nc3c(c12)CC(c1ccccc1)O3", "note": "(stereo unspecified)", "values": [
      {"measurement": "AC50", "setting": "Cytochrome P450 2D6", "result": "25.1 µM (inconclusive)"},
      {"measurement": "AC50", "setting": "Cytochrome P450 3A4 [4]", "result": "1 µM (inconclusive)"},
      {"measurement": "EC50", "setting": "[5]", "result": "2.99 µM (active)"}
    ]},
    {"compound": "C=CCn1cnc2scc(-c3ccc(CC)cc3)c2c1=O", "values": [
      {"measurement": "EC50", "setting": "[5]", "result": "5.96 µM (active)"}
    ]},
    {"compound": "Cc1cccn2c(=O)c(/C=N/O)c(Nc3ccccc3F)nc12", "values": [
      {"measurement": "IC50", "setting": "[6]", "result": "> 50 µM (inactive)"},
      {"measurement": "IC50", "setting": "[7]", "result": "11.4 µM (active)"}
    ]},
    {"compound": "Cc1cccnc1NC(=O)C12CCC(C)(C(=O)O1)C2(C)C", "note": "(stereo unspecified)", "values": [
      {"measurement": "AC50", "setting": "Cytochrome P450 2C19", "result": "inconclusive"},
      {"measurement": "AC50", "setting": "Cytochrome P450 3A4 [1]", "result": "inconclusive"}
    ]},
    {"compound": "O=C(Cc1coc2ccc3ccccc3c12)Nc1nnc(C2CC2)s1", "values": [
      {"measurement": "IC50", "setting": "Vero [8]", "result": "21.7 µM (active)"},
      {"measurement": "CC50", "setting": "Vero [9]", "result": "> 25 µM (active)"}
    ]},
    {"compound": "O=C(CC1C(=O)NCCN1C(=O)Nc1ccc(C(F)(F)F)cc1)Nc1ccc(F)cc1", "note": "(stereo unspecified)", "values": [
      {"measurement": "CC50", "setting": "Vero [9]", "result": "> 25 µM (active)"}
    ]},
    {"compound": "CCCCNC(=O)C(c1ccc(OCC(=O)OC)c(C(=O)OC)c1)N(CCOC)C(=O)CCCCCN1C(=O)NC(c2ccc(-c3ccccc3)cc2)C(C(=O)OCc2ccccc2)=C1C", "note": "(stereo unspecified)", "values": [
      {"measurement": "AC50", "setting": "Cytochrome P450 3A4 [2]", "result": "3.16 µM (inconclusive)"}
    ]}
  ]
}
